Experimental data: patent publication US8012967B2, “Minor groove binders” (University of Strathclyde, priority 2006, dated 2011)
In brackets after ≈: the same amount, converted by molar mass. Read-outs that look alike come from different tables or passages of the source. One block for each compound: values may come before it.

What was measured:
[1] = system: DNA; conditions: background statement, cited from earlier work; for DNA sequence preference: result in words; for Kd: read-out: dissociation constants (binding to DNA)
[2] = system: Staphylococcus aureus Strain 1 (BSAC04(1)) (Clinical isolate from Glasgow Royal Infirmary); assay: MIC, Staphylococcus aureus Strain 1; type: cell-based; conditions: for MIC: read-out: Minimum inhibitory concentrations (MICs), S aureus 1
Description: The effects of compounds of the invention in relation to inhibiting the growth of various microorganisms was determined using methods known to those skilled in the art, for example in vitro methods as described in J. Med. Chem. 47, 2133-2156 (2004) and in vivo methods as described in J. Med. Microbiol. 46, 208-213 (1997), the disclosures of which documents are hereby incorporated by reference.
(§1) In particular, minimum inhibitory concentrations (MICs) against microorganisms (e.g. S. Aureus, Streptococcus faecalis, Aspergillus niger, Candida albicans or Mycobacterium fortuitum) for compounds of the invention may be measured using procedures such as those described in A. J. Drummond and R. D. Waigh “The development of microbiological methods for phytochemical screening” Recent Res. Devel. Phytochem. 4, 143-152 (2000), the disclosures of which document are hereby incorporated by reference.
(§2) Sample dilutions were typically prepared by dissolving the test sample (2 mg) in sterile water (10 mL) to provide a working concentration of 200 μg/ml. The test wells on each 96 well microtitre plate were initially inoculated with culture medium (100 μL) using Mueller-Hinton Broth for antibacterial assays and Sabouraud Broth for antifungal assays. A solution of each test sample (100 μL) was added to one row of each plate and a series of doubling dilutions made for successive rows. Incubation was at 37° C. for antibacterial assay and 25° C. for antifungal assay. […] From the observed pattern of colour, the MIC was determined. All tests included sterility and growth controls.

[3] = system: Staphylococcus aureus Strain 2 (NCTC 6571); assay: MIC, Staphylococcus aureus Strain 2; type: cell-based; conditions: for MIC: read-out: Minimum inhibitory concentrations (MICs), S. aureus 2
Description: (§3) The effects of compounds of the invention in relation to inhibiting the growth of various microorganisms was determined using methods known to those skilled in the art, for example in vitro methods as described in J. Med. Chem. 47, 2133-2156 (2004) and in vivo methods as described in J. Med. Microbiol. 46, 208-213 (1997), the disclosures of which documents are hereby incorporated by reference. In particular, minimum inhibitory concentrations (MICs) against microorganisms (e.g. S. Aureus, Streptococcus faecalis, Aspergillus niger, Candida albicans or Mycobacterium fortuitum) for compounds of the invention may be measured using procedures such as those described in A. J. Drummond and […] development of microbiological methods for phytochemical screening” Recent Res. Devel. […] The test wells on each 96 well microtitre plate were initially inoculated with culture medium (100 μL) using Mueller-Hinton Broth for antibacterial assays and Sabouraud Broth for antifungal assays. A solution of each test sample (100 μL) was added to one row of each plate and a series of doubling dilutions made for successive rows. Incubation was at 37° C. for antibacterial assay and 25° C. for antifungal assay. […] From the observed pattern of colour, the MIC was determined. All tests included sterility and growth controls.

[4] = system: Streptococcus faecalis (NCTC 775); assay: MIC, Streptococcus faecalis; type: cell-based; conditions: for MIC: read-out: Minimum inhibitory concentrations (MICs), St. faecalis
Description: as §3

[5] = system: Mycobacter fortuitum (NCTC 10394); assay: MIC, Mycobacter fortuitum; type: cell-based; conditions: for MIC: read-out: Minimum inhibitory concentrations (MICs), M. fortuitum
Description: as §3

[6] = system: Candida albicans (NCPF3179); assay: MIC, Candida albicans; type: cell-based; conditions: for MIC: read-out: Minimum inhibitory concentrations (MICs), C. albicans
Description: as §3

[7] = system: Aspergillus niger (IMI 1745); assay: MIC, Aspergillus niger; type: cell-based; conditions: for MIC: read-out: Minimum inhibitory concentrations (MICs), A. niger
Description: as §3

[8] = system: clinical strains of S. aureus in the Scottish Clinical Isolates Collection; assay: MIC against collected clinical strains of S. aureus (BSAC03/04/05 (1)-(10)); type: cell-based, Staphylococcus aureus
Text: as §1, §2
BSAC03/04/05 (1)-(10) refer to collected clinical strains of S. aureus in the Scottish Clinical Isolates Collection.

[9] = value in parentheses, na = not active

Compound: Cn1cc(NC(=O)c2cc(NC(=O)c3cc(NC=O)cn3C)cn2C)cc1C(=O)NCCC(=N)N [distamycin]
DNA sequence preference [1]: preference for AT-rich regions of DNA
Kd [1]: ~10 µM

MIC ([2]; Staphylococcus aureus, value in parentheses, na = not active): 0.5 µg/mL
MIC ([2]; Staphylococcus aureus, value outside parentheses): 0.67 µM
MIC ([3]; Staphylococcus aureus, NCTC6571, value in parentheses, na = not active): 50 µg/mL
MIC ([3]; Staphylococcus aureus, NCTC6571, value outside parentheses): 67 µM
MIC ([4]; Enterococcus faecalis, NCTC775, value in parentheses, na = not active): 25 µg/mL
MIC ([4]; Enterococcus faecalis, NCTC775, value outside parentheses): 34 µM
MIC ([5]; Mycolicibacterium fortuitum, NCTC10394, value in parentheses, na = not active): 100 µg/mL
MIC ([5]; Mycolicibacterium fortuitum, NCTC10394, value outside parentheses): 135 µM
MIC ([6]; Candida albicans, NCPF3179, value in parentheses, na = not active): 50 µg/mL
MIC ([6]; Candida albicans, NCPF3179, value outside parentheses): 67 µM
MIC ([7]; Aspergillus niger, value in parentheses, na = not active): 100 µg/mL
MIC ([7]; Aspergillus niger, value outside parentheses): 135 µM
Compound: CSc1ccc(/C=C/c2ccc(C(=O)Nc3cc(C(=O)Nc4cc(C(=O)NCCN5CCOCC5)n(C)c4)n(C)c3)cn2)cc1 [Example 25, N-[1-methyl-5-({[1-methyl-5-({[2-(4-morpholinyl)ethyl]amino}carbonyl)-1H-pyrrol-3-yl]amino}carbonyl)-1H-pyrrol-3-yl]-6-{(E)-2-[4-(methylsulfanyl)-phenyl]ethenyl}nicotinamide]

Compound: Cn1cc(NC(=O)c2cc(NC(=O)CN=C(N)N)cn2C)cc1C(=O)NCCC(=N)N [Netropsin, netropsin]
DNA sequence preference [1]: preference for AT-rich regions of DNA
Kd [1]: ~10 µM

Minimum inhibitory concentrations (MICs), S aureus 1 [2, 9]: 0.5 µg/mL (≈ 0.817 µM)
MIC ([2]; value outside parentheses): 0.69 µM
Minimum inhibitory concentrations (MICs), S. aureus 2 [3, 9]: 12.5 µg/mL (≈ 20.4 µM)
MIC ([3]; value outside parentheses): 17.2 µM
Minimum inhibitory concentrations (MICs), St. faecalis [4, 9]: 6.3 µg/mL (≈ 10.3 µM)
MIC ([4]; value outside parentheses): 8.6 µM
Minimum inhibitory concentrations (MICs), M. fortuitum [5, 9]: 50 µg/mL (≈ 81.7 µM)
MIC ([5]; value outside parentheses): 69 µM
Minimum inhibitory concentrations (MICs), C. albicans [6, 9]: 25 µg/mL (≈ 40.9 µM)
MIC ([6]; value outside parentheses): 34 µM
Minimum inhibitory concentrations (MICs), A. niger [7, 9]: 50 µg/mL (≈ 81.7 µM)
MIC ([7]; value outside parentheses): 69 µM
Minimum inhibitory concentrations (MICs) ([8]; S. aureus BSAC culture year 2003 number 1): 0.5 µg/mL (≈ 0.817 µM)
Minimum inhibitory concentrations (MICs) ([8]; S. aureus BSAC culture year 2003 number 2): 4 µg/mL (≈ 6.54 µM)
Minimum inhibitory concentrations (MICs) ([8]; S. aureus BSAC culture year 2003 number 3): 0.5 µg/mL (≈ 0.817 µM)
Minimum inhibitory concentrations (MICs) ([8]; S. aureus BSAC culture year 2003 number 4): 0.5 µg/mL (≈ 0.817 µM)
Minimum inhibitory concentrations (MICs) ([8]; S. aureus BSAC culture year 2003 number 5): 0.5 µg/mL (≈ 0.817 µM)
Minimum inhibitory concentrations (MICs) ([8]; S. aureus BSAC culture year 2003 number 6): 1 µg/mL (≈ 1.63 µM)
Minimum inhibitory concentrations (MICs) ([8]; S. aureus BSAC culture year 2003 number 7): 0.5 µg/mL (≈ 0.817 µM)
Minimum inhibitory concentrations (MICs) ([8]; S. aureus BSAC culture year 2003 number 8): 0.5 µg/mL (≈ 0.817 µM)
Minimum inhibitory concentrations (MICs) ([8]; S. aureus BSAC culture year 2003 number 9): 2 µg/mL (≈ 3.27 µM)
Minimum inhibitory concentrations (MICs) ([8]; S. aureus BSAC culture year 2003 number 10): 0.5 µg/mL (≈ 0.817 µM)
Minimum inhibitory concentrations (MICs) ([8]; S. aureus BSAC culture year 2004 number 1): 0.5 µg/mL (≈ 0.817 µM)
Minimum inhibitory concentrations (MICs) ([8]; S. aureus BSAC culture year 2004 number 2): 4 µg/mL (≈ 6.54 µM)
Minimum inhibitory concentrations (MICs) ([8]; S. aureus BSAC culture year 2004 number 3): 2 µg/mL (≈ 3.27 µM)
Minimum inhibitory concentrations (MICs) ([8]; S. aureus BSAC culture year 2004 number 4): 2 µg/mL (≈ 3.27 µM)
Minimum inhibitory concentrations (MICs) ([8]; S. aureus BSAC culture year 2004 number 5): 0.5 µg/mL (≈ 0.817 µM)
Minimum inhibitory concentrations (MICs) ([8]; S. aureus BSAC culture year 2004 number 6): 0.5 µg/mL (≈ 0.817 µM)
Minimum inhibitory concentrations (MICs) ([8]; S. aureus BSAC culture year 2004 number 7): 1 µg/mL (≈ 1.63 µM)
Minimum inhibitory concentrations (MICs) ([8]; S. aureus BSAC culture year 2004 number 8): 1 µg/mL (≈ 1.63 µM)
Minimum inhibitory concentrations (MICs) ([8]; S. aureus BSAC culture year 2004 number 9): 2 µg/mL (≈ 3.27 µM)
Minimum inhibitory concentrations (MICs) ([8]; S. aureus BSAC culture year 2004 number 10): 1 µg/mL (≈ 1.63 µM)
Minimum inhibitory concentrations (MICs) ([8]; S. aureus BSAC culture year 2005 number 1): 2 µg/mL (≈ 3.27 µM)
Minimum inhibitory concentrations (MICs) ([8]; S. aureus BSAC culture year 2005 number 2): 8 µg/mL (≈ 13.1 µM)
Minimum inhibitory concentrations (MICs) ([8]; S. aureus BSAC culture year 2005 number 3): 2 µg/mL (≈ 3.27 µM)
Minimum inhibitory concentrations (MICs) ([8]; S. aureus BSAC culture year 2005 number 4): 0.5 µg/mL (≈ 0.817 µM)
Minimum inhibitory concentrations (MICs) ([8]; S. aureus BSAC culture year 2005 number 5): 4 µg/mL (≈ 6.54 µM)
Minimum inhibitory concentrations (MICs) ([8]; S. aureus BSAC culture year 2005 number 6): 0.5 µg/mL (≈ 0.817 µM)
Minimum inhibitory concentrations (MICs) ([8]; S. aureus BSAC culture year 2005 number 7): 0.5 µg/mL (≈ 0.817 µM)
Minimum inhibitory concentrations (MICs) ([8]; S. aureus BSAC culture year 2005 number 8): 4 µg/mL (≈ 6.54 µM)
Minimum inhibitory concentrations (MICs) ([8]; S. aureus BSAC culture year 2005 number 9): 2 µg/mL (≈ 3.27 µM)
Minimum inhibitory concentrations (MICs) ([8]; S. aureus BSAC culture year 2005 number 10): 1 µg/mL (≈ 1.63 µM)
Compound: COc1ccc(/C=C/c2ccc(C(=O)Nc3cc(C(=O)Nc4cc(C(=O)NCCN5CCOCC5)n(C)c4)n(C)c3)cn2)cc1 [Example 22]
microbicidal activity against a number of different strains of Staphylococcus aureus ([8]; result in words): displayed microbicidal activity
